Data reported in patent publication US20110277050A1, “SYSTEM AND METHODS TO CONTROL TRANSGENE EXPRESSION” (The Board of Trustees of the Leland Stanford Junior …, priority 2010, published 2011).
One block for each molecule: values may come before it.

What was measured:
[1] = tested on: QUAS-luc2 reporter (QF activation, QS repression) in Drosophila S2 cells; assay: Dual luciferase reporter assay in transiently transfected Drosophila S2 cells, QUAS-luc2 reporter (QF/QS); type: cell-based
Procedure: (§1) S2 Cell Transfection: S2 cells (gift of M. Simon, Stanford University) were maintained in Shields and Sang M3 insect medium (Sigma, Catalog #S8398), prepared according to the manufacturer's instructions and supplemented with 10% heat inactivated fetal bovine serum (FBS) and antibiotics (from 100× penicillin/streptomycin stock, Invitrogen, Catalog #15140). FBS was heat inactivated at 56° C. for 30 minutes. The cells were grown in an air incubator at 25° C. For transfection, 0.4 ml of complete M3 medium containing 5*10^5 Drosophila S2 cells were plated into individual wells of 24-well plates several hours before the transfection. The DNA for transfection was mini-prepped (QIAprep Miniprep kit, Qiagen, Catalog #27106), DNA concentrations were determined using the Nanoprop 1000 spectrophotometer (Thermo Scientific), diluted in 10 mM TRIS-HCl pH 7.5, 0.1 mM EDTA to 25 ng/μl, and filtered through a 13-mm 0.2 μm filter (Nalgene, Catalog #180-1320). For individual transfections, we used 0.2 μg of total DNA (total of 8 μl from 25 ng/μl stocks) including one or more of the following: 25 ng of reporter, 12.5 ng of a transcription factor plasmid and the amount or repressor plasmid that was adjusted according to the molarity of the corresponding transcription factor plasmid to get either equimolar, 3-fold or 5-fold higher molar concentration, as indicated. Each sample also contained 2.5 ng of pPAC5C-hRluc, which was used for normalization of the firefly luciferase signal for each sample (see below) and pBluescript to supplement the total DNA amount to 0.2 μg. The cells were transfected using Effectene (Qiagen, Catalog #301425) according to the manufacturer's protocol (for each sample we used: 59 μl EC buffer; 1.6 μl enhancer solution; 4 μl Effectene and 350 μl M3 medium). 12 h after the addition of transfection mixes to cells, quinic acid was added where indicated from 50× stocks. The starting quinic acid stock solution (250 mg/ml) was prepared from D-(−)-quinic acid (Sigma-Aldrich, 98%, Catalog #138622) in sterile Milli-Q water and neutralized with NaOH to pH˜7. All other 50× stocks were made from this stock by dilution in water. Cells were lysed 24 h after the addition of quinic acid (36 h since the start of transfection), by spinning the 24-well plates for 5′ in a table top centrifuge at ˜1000 g, removing the supernatant by aspiration and incubation with of 200 μl passive lysis buffer (from the Dual Luciferase Reporter Assay System by Promega, Catalog #E1910) with shaking at room temperature for ˜30 minutes. The lysates were transferred into 1.5 ml tubes and frozen at −80° C. The lysates were analyzed using the Dual Luciferase Reporter Assay System, according to the manufacturer's instructions, and the single tube Turner Biosystems luminometer, model 20/20n. The luminescence light signal for both firefly and Renilla luciferases was collected for 10 s. All samples that were transfected with reporters had at least 100-fold higher signal than the background (lysates from pBluescript-only transfected cells). For each sample “X”, the relative luciferase activity (RLA) was calculated according to the following formula: […] where n=number of QUAS-only samples; F=Firefly luciferase luminescence signal; R=Renilla luciferase luminescence signal. Each condition was executed at least in triplicate, the average and SEM were determined for each condition, and statistical significance was evaluated using Student's t-test. […]

[2] = tested on: UAS-luc2 reporter (GAL4 activation, GAL80 repression) in Drosophila S2 cells; assay: Dual luciferase reporter assay in transiently transfected Drosophila S2 cells, UAS-luc2 reporter (GAL4/GAL80); type: cell-based
Procedure: as §1

[3] = tested on: QUAS-luc2 reporter (QF activation, QS repression) in human HeLa cells; assay: Dual luciferase reporter assay in transiently transfected human HeLa cells, QUAS-luc2 reporter (QF/QS); type: cell-based
Procedure: (§2) HeLa Cell Transfection: HeLa cells (gift of K. Wehner, Stanford University) were maintained in Dulbecco's Modified Eagle Medium (DMEM, Invitrogen, Catalog #10566), supplemented with 10% FBS and antibiotics (from 100× penicillin/streptomycin stock, Invitrogen, Catalog #15140) in a 37° C. air incubator with 5% CO2. At least 5 hours before transfection, cells were detached and dissociated from the plate using Triple-express (Invitrogen, Catalog #12605) and plated into 24-well plates at 7*10^4 cells in 0.5 ml medium with FBS, but without antibiotics. Cells were transiently transfected using Lipofectamine 2000 (Invitrogen, Catalog #11668-019), according to the manufacturer's instructions. Plasmid DNA for transfection was prepared as described in the S2 cell transfection protocol above. For each sample we used 0.25 μg DNA (total of 10 μl from 25 ng/μl stocks) including one or more of the following: 50 ng of reporter, 25 ng of a transcription factor plasmid and the amount or repressor plasmid that was adjusted according to the molarity of the corresponding transcription factor plasmid to get either equimolar, 3-fold or 5-fold higher molar concentration, as indicated.
Each sample also contained 5 ng of pGL4.75 (hRluc/CMV from Promega), which was used for normalization of the firefly luciferase signal for each sample (see below), and pBluescript to supplement the total DNA amount to 0.25 μg. The DNA was mixed in 50 μl of Opti-MEM (Invitrogen, Catalog #51985) and combined with another 50 μl of Opti-MEM containing 1 μl of Lipofectamine. The medium containing the transfection mix was replaced with DMEM containing FBS and antibiotics 22 h after transfection. Where needed, the medium contained quinic acid supplemented from 50× stocks that were made as described in the S2 cell transfection protocol above. 24 h after the medium was changed, the cells were lysed in 24-well plates and processed as described above in the S2 cell transfection protocol. All samples that were transfected with reporters had at least 100-fold higher signal than the background (lysates from pBluescript-only transfected cells). […] Plasmids used for transfection in HeLa cells were: pUAS-luc2, pQUAS-luc2, pCMV-QF, pCMV-QS, pCMV-GAL4, pCMV-GAL80, pGL4.75 (Promega), pBluescript. Higher QS:QF or GAL80:GAL4 molar ratios are required for effective suppression in HeLa cells compared with Drosophila S2 cells. This phenomenon could be due to codon choice and/or differential activity or stability of activators and repressors at different temperatures—25° C. for S2 and 37° C. for HeLa.

[4] = tested on: QS inhibition of ET40-QF driven QUAS-mtdT-HA expression; assay: Quinic acid feeding of flies: derepression of QS (fluorescence imaging of adult flies); type: in vivo, Drosophila
Procedure: (§3) Quinic acid feeding of flies: Quinic acid containing medium was made as follows: a few holes were made in standard fly medium with wooden sticks, and 0.3 ml of freshly made D-(−)-quinic acid (Sigma-Aldrich, 98%, Catalog #138622) solution dissolved in water was added per 10 ml of medium. Vials were allowed to air-dry overnight. […] For assaying the effect of quinic acid on developing animals, approximately 10 males and 15 females per vial of the genotype ET40-QF, QUAS-mtdT-3xHA (II); 82B^FRT tubP-QS (III) were allowed to lay eggs for 6 hours on quinic acid containing medium. Animals fed upon and developed in the quinic acid containing food. Adult flies were imaged within 3 days of eclosion. For assaying the effect of quinic acid feeding on adult flies, approximately 30 adult flies per vial of genotype ET40-QF, QUAS-mtdT-3xHA (II); 82B^FRT tubP-QS (III) were allowed to feed on quinic acid medium for the listed times in FIG. 3D. For feedings over multiple days, flies were transferred to fresh quinic acid containing food every two days.
Imaging of adult flies: Adult flies were imaged on a Qlmaging Retiga 2000R Cooled Monochrome Digital camera using a Discovery V8 Pentafluor System (Zeiss) with a DS RED filter cube.

Flies = Flies kept on food containing high doses of quinic acid; type: in vivo, Drosophila; settings: 9 generations on food containing high doses of quinic acid
Procedure: as §3

[5] = Stability of quinic acid in fly food, judged by derepression activity; type: physicochemical; settings: food stored for at least a week at 18° C.
Procedure: as §3

[6] = tested on: UAS-luc2 reporter (GAL4 activation) in human HeLa cells; assay: Dual luciferase reporter assay in transiently transfected human HeLa cells, UAS-luc2 reporter (GAL4); type: cell-based
Procedure: as §2
Each sample also contained 5 ng of pGL4.75 (hRluc/CMV from Promega), which was used for normalization of the firefly luciferase signal for each sample (see below), and pBluescript to supplement the total DNA amount to 0.25 μg. […]

[7] = adult flies transferred to quinic acid-containing food

abnormalities in flies (Flies): no noticeable abnormalities
stability in food [5]: appears to be stable
Molecule: O=C(O)[C@]1(O)C[C@@H](O)[C@@H](O)[C@H](O)C1 [quinic acid, D-(−)-quinic acid]
suppression of QS to restore QF-based transcription [1]: significantly suppressed QS
effect on QF activation of QUAS ([1]; high concentration (5 mg/ml)): no effect
re-activation of QUAS compared to the control sample with QUAS, QF and 5xQS ([1]; highest QA concentration tested (QA3=5 mg/ml), 24 h): ~23 fold
derepression of GAL4 (effect on GAL80 repression of GAL4) ([2]; high concentration (5 mg/ml)): ~1.5 fold
effect on Gal4 activation of UAS ([2]; high concentration (5 mg/ml)): no effect
effect on QF-dependent transcription of QUAS [3]: no effect
suppression of QS in mammalian cells ([3]; also observed in COS cells): does not suppress QS
further suppression of QUAS activation in the presence of QF and 5xQS ([3]; two higher QA concentrations tested (250 μg/ml, 5 mg/ml)): ~13 fold
derepression in flies fed for up to 10 days compared with 5 days ([4]; adult flies on quinic acid food): no more derepression
time after which reversion of suppression could be seen [4, 7]: 6 h
time of marked reversion of suppression [4, 7]: 24 h
time of saturation of reversion of suppression [4, 7]: ≤ 5 days
reversion of QS inhibition of ET40-QF driven QUAS-mtdT-HA expression with increasing doses ([4]; quinic acid added to fly food on which flies developed): increasingly reverted

B1: GAL4: budding yeast transcription factor of the GAL4/UAS binary expression system (protein, UniProt P04386 1-881, looked up)
Regulatory protein GAL4: MKLLSSIEQACDICRLKKLKCSKEKPKCAKCLKNNWECRYSPKTKRSPLTRAHLTEVESRLERLEQLFLLIFPREDLDMILKMDSLQDIKALLTGLFVQDNVNKDAVTDRLASVETDMPLTLRQHRISATSSSEESSNKGQRQLTVSIDSAAHHDNSTIPLDFMPRDALHGFDWSEEDDMSDGLPFLKTDPNNNGFFGDGSLLCILRSIGFKPENYTNSNVNRLPTMITDRYTLASRSTTSRLLQSYLNNFHPYCPIVHSPTLMMLYNNQIEIASKDQWQILFNCILAIGAWCIEGESTDIDVFYYQNAKSHLTSKVFESGSIILVTALHLLSRYTQWRQKTNTSYNFHSFSIRMAISLGLNRDLPSSFSDSSILEQRRRIWWSVYSWEIQLSLLYGRSIQLSQNTISFPSSVDDVQRTTTGPTIYHGIIETARLLQVFTKIYELDKTVTAEKSPICAKKCLMICNEIEEVSRQAPKFLQMDISTTALTNLLKEHPWLSFTRFELKWKQLSLIIYVLRDFFTNFTQKKSQLEQDQNDHQSYEVKRCSIMLSDAAQRTVMSVSSYMDNHNVTPYFAWNCSYYLFNAVLVPIKTLLSNSKSNAENNETAQLLQQINTVLMLLKKLATFKIQTCEKYIQVLEEVCAPFLLSQCAIPLPHISYNNSNGSAIKNIVGSATIAQYPTLPEENVNNISVKYVSPGSVGPSPVPLKSGASFSDLVKLLSNRPPSRNSPVTIPRSTPSHRSVTPFLGQQQQLQSLVPLTPSALFGGANFNQSGNIADSSLSFTFTNSSNGPNLITTQTNSQALSQPIASSNVHDNFMNNEITASKIDDGNNSKPLSPGWTDQTAYNAFGITTGMFNTTTMDDVYNYLFDDEDTPPNPKKE
GAL4 activation of QUAS, fold less than that of UAS ([1]; cross-activation): ~200 fold
higher inducibility than QF/QUAS [2]: ~1.6 fold
induction of luc2 expression from UAS-luc2 [2]: ~5,300 fold
induction of UAS [6]: ~1000 fold

B2: QF: transcriptional activator from the Neurospora crassa qa gene cluster, binds 16-base pair sequence (QUAS) (protein, UniProt P11638 1-816, looked up)
Transcription factor qa-1f: MPPKRKTLNAAAEANAHADGHADGNADGHVANTAASSNNARFADLTNIDTPGLGPTTTTLLVEPARSKRQRVSRACDQCRAAREKCDGIQPACFPCVSQGRSCTYQASPKKRGVQTGYIRTLELALAWMFENVARSEDALHNLLVRDAGQGSALLVGKDSPAAERLHARWATSRVNKSITRLLSGQAAQDPSEDGQSPSEDINVQDAGAKTSDFPHAPHLTFSAPKSSTAETRTLPGPVRPPISANTLENNLQPDGTGIGKLPPNHWRLLDIYFSYTHSWLPILEKKDMYQALYQYSEQGSLLPSANVESGVHAELWSALALASFQAAATAASSATGPASAAHGHDNAINPSPADISDTARKLIPLESGPFQVQHCRALLLLCLVSLGRDDWESAWLLVGFAVRVLLVVRTQLPPDDDRPRPRMRALLVACFIVDTIVSMRHNVPAHLKPDDIADLPLPEDGQDQWEPWTPCEGLGGEHTMLQMLRNPAYPLSTFNHLYGVTKLVALELLPRIRTSSQNAPLEFRSRLQQVIGHNSPFSVFVLSQDTASAFVPTAYLTRTVYLWAAAFSEPLNEHYSHLLIETLDQYQKRFGTYAIPPLIPSLLDSLLALKKQSHSSERHRRHLEELFPAYSSIWPRGGRHSNTGLQPIRQLELPPTATATASIMPHVMEQPLSTSINPVNDRFNGIPNPTPYNSDAALDAITQTNDYGSVNTHGILSTYPPPATHLNEASVALAPGGAPPRPPPPYVDSTTNHPPYHSNLVPMANFGYSTVDYDAMVDDLASIEYTDAVDVDPQFMTNLGFVPGCNFSDISTYEQ
enhancement of luc2 expression from QUAS-luc2 compared with QUAS-luc2 alone [1]: ~3.300 fold
QF activation of UAS, fold less than that of QUAS ([2]; cross-activation): ~1,500 fold
induction of expression from QUAS [3]: ~24.000 fold
